The text below walks through data of ChEMBL document CHEMBL1201862, “PubChem BioAssay data set” (2004).

Molecules are shown by their SMILES.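 All cell lines were grown in 96-well plates and treated with compound for 48 hours. GI50 marks 50% less growth.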 Calls of active or inactive are those of the source. No stated cut-off is given here; in the data, active = GI50 up to about 1.1 µM and inactive = higher. Bounds are passed on as bounds.

Among the test systems are RXF 393; MDA-N; CAKI-1; SR; MDA-MB-231; K562; HCT-116; MCF7; BT-549; KM12; Hs-578T; SK-MEL-2; SF-295; SNB-19; DU-145; CCRF-CEM; NCI/ADR-RES; SNB-75; TK-10; U-251.
What all share (experiment): NCI tumour cell line growth inhibition, 48 h

For `CC1=NN(c2ccc(S(=O)(=O)O)cc2)C(=O)/C1=C/c1ccc(Cl)cc1.c1ccncc1`, the GI50 in the test on RXF 393, in the test on MDA-N, in the test with CAKI-1, in the test with SR, in the test with MDA-MB-231 and in the test with K562 was > 100 µM (inactive) in each case. Also, the GI50 in the test with HCT-116, in the test on MCF7, with BT-549, in the test on KM12, in the test with Hs-578T and in the test with SK-MEL-2 was > 100 µM (inactive) throughout. Further, the GI50 with SF-295, in the test with SNB-19, in the test on DU-145, in the test with CCRF-CEM, in the test with NCI/ADR-RES and with SNB-75 was > 100 µM (inactive) throughout. For the same compound, the GI50 in the test on TK-10 and in the test with U-251 was > 100 µM (inactive) throughout.
Turning to `Cc1ccc(C2SCC(=O)N2c2ccc(-n3c(-c4ccccc4)nc4ccccc4c3=O)cc2)cc1` (stereo not given), the GI50 is 22.8 µM (inactive) in the test on RXF 393; 20.9 µM (inactive) with MDA-N; 30.1 µM (inactive) with CAKI-1; 7.89 µM (inactive) in the test with SR; 4.84 µM (inactive) with MDA-MB-231; 7.26 µM (inactive) in the test with K562. Besides, the GI50 is 7.82 µM (inactive) in the test on HCT-116; 22.6 µM (inactive) with MCF7; 20.2 µM (inactive) in the test with BT-549; 16.6 µM (inactive) with KM12; 10 µM (inactive) in the test with Hs-578T; 20.8 µM (inactive) in the test with SK-MEL-2. In addition, the GI50 was 14.7 µM (inactive) in the test with SF-295; 26.9 µM (inactive) in the test on SNB-19; 31 µM (inactive) in the test on DU-145; 8.18 µM (inactive) with CCRF-CEM; 19.3 µM (inactive) with NCI/ADR-RES; 18.3 µM (inactive) in the test on SNB-75. For the same compound, the GI50 in the test on TK-10 was 50.9 µM (inactive); in the test with U-251 it was 5.3 µM (inactive).
With `C[C@H](CCC(=O)NCC(=O)O)[C@H]1CC[C@H]2[C@@H]3[C@H](O)C[C@@H]4C[C@H](O)CC[C@]4(C)[C@H]3CC[C@]12C`, the GI50 in the test on RXF 393, in the test with MDA-N, in the test on CAKI-1, with SR, with MDA-MB-231 and in the test on K562 was > 100 µM (inactive) in each case. The GI50 in the test with HCT-116, in the test on MCF7, in the test with BT-549, with KM12, in the test with Hs-578T and in the test with SK-MEL-2 was > 100 µM (inactive) each time. Further, the GI50 with SF-295 was > 100 µM (inactive); in the test on SNB-19, > 100 µM (inactive); with DU-145, > 100 µM (inactive); in the test with CCRF-CEM, > 100 µM (inactive); in the test on NCI/ADR-RES it was > 100 µM (inactive); with SNB-75, 0.75 µM (active). Also, the GI50 in the test on TK-10 and in the test with U-251 was > 100 µM (inactive) in each case.
For the compound `COc1c(Cl)ccc(Cl)c1-c1nnc(-c2c(Cl)c(Cl)c(Cl)c(Cl)c2-c2nc3cc(C(=O)c4ccccc4)ccc3[nH]2)o1`, the GI50 in the test on RXF 393 is 20.8 µM (inactive); in the test with MDA-N it was 20 µM (inactive); with CAKI-1 it was > 100 µM (inactive); in the test on SR it was 25.4 µM (inactive); in the test on MDA-MB-231, 43.8 µM (inactive); with K562, 28.9 µM (inactive). For the same compound, the GI50 was 63.1 µM (inactive) in the test on HCT-116; 31.6 µM (inactive) in the test with MCF7; 76.7 µM (inactive) in the test with BT-549; 45.5 µM (inactive) in the test with KM12; 42.2 µM (inactive) with Hs-578T; 37.7 µM (inactive) with SK-MEL-2. For the same compound, the GI50 in the test on SF-295 was 29.4 µM (inactive); in the test with SNB-19, 62.2 µM (inactive); in the test on DU-145 it was > 100 µM (inactive); with CCRF-CEM, 24.9 µM (inactive); in the test with NCI/ADR-RES, 28.3 µM (inactive); in the test with SNB-75 it was 33.5 µM (inactive). Besides, the GI50 in the test on TK-10 was > 100 µM (inactive); in the test on U-251, 61 µM (inactive).
For the compound `CCOc1ccc(C2c3[nH]c4ccccc4c3CCN2C(=O)c2cccs2)cc1` (stereo not given), the GI50 was 7.18 µM (inactive) in the test on RXF 393; 6.55 µM (inactive) in the test on MDA-N; 9.14 µM (inactive) in the test on CAKI-1; 2.62 µM (inactive) in the test with SR; 9.33 µM (inactive) in the test on MDA-MB-231; 2.34 µM (inactive) in the test with K562. Also, the GI50 was 4.8 µM (inactive) in the test on HCT-116; 7.6 µM (inactive) in the test with MCF7; 61.9 µM (inactive) in the test with BT-549; 9.08 µM (inactive) in the test with KM12; 63.1 µM (inactive) in the test with Hs-578T; 78.3 µM (inactive) in the test with SK-MEL-2. In addition, the GI50 in the test with SF-295 was 6.03 µM (inactive); in the test on SNB-19 it was 23.8 µM (inactive); in the test with DU-145, 68.9 µM (inactive); in the test on CCRF-CEM, 3.48 µM (inactive); in the test on NCI/ADR-RES, 6.43 µM (inactive); in the test with SNB-75, 35.6 µM (inactive). Also, the GI50 was > 100 µM (inactive) in the test on TK-10 and 4.07 µM (inactive) in the test with U-251.
Consider `CC12CCC(=O)[C@@]1(C)CCCC2=O` (stereo not given in full), for which the GI50 in the test on RXF 393 was 42.2 µM (inactive); with MDA-N, > 100 µM (inactive); with CAKI-1 it was > 100 µM (inactive); with SR, > 100 µM (inactive); with MDA-MB-231, > 100 µM (inactive); in the test with K562, > 100 µM (inactive). The GI50 in the test with HCT-116, in the test with MCF7, in the test on BT-549, with KM12, with Hs-578T and in the test on SK-MEL-2 was > 100 µM (inactive) throughout. The GI50 was > 100 µM (inactive) with SF-295; > 100 µM (inactive) in the test with SNB-19; > 100 µM (inactive) in the test on DU-145; > 100 µM (inactive) in the test on CCRF-CEM; > 100 µM (inactive) in the test on NCI/ADR-RES; > 10 µM (inactive) in the test on SNB-75. The GI50 with TK-10 and in the test on U-251 was > 100 µM (inactive) in each case.
As for `NC1CSc2ccccc2NC1=O` (stereo not given), the GI50 in the test with RXF 393, in the test on MDA-N, with CAKI-1, in the test on SR, in the test with MDA-MB-231 and in the test on K562 was > 100 µM (inactive) throughout. For the same compound, the GI50 in the test on HCT-116, with MCF7, with BT-549, in the test on KM12, with Hs-578T and with SK-MEL-2 was > 100 µM (inactive) throughout. Besides, the GI50 in the test with SF-295, with SNB-19, in the test on DU-145, in the test on CCRF-CEM, with NCI/ADR-RES and in the test with SNB-75 was > 100 µM (inactive) each time. Further, the GI50 in the test with TK-10 and in the test on U-251 was > 100 µM (inactive) in each case.
For the compound `CC(C)(C)c1ccc(-c2nnc(SCc3ccc(Cl)cc3)n2-c2cccc(C(F)(F)F)c2)cc1`, the GI50 in the test with RXF 393 was 8.91 µM (inactive); in the test with MDA-N, 24.2 µM (inactive); with CAKI-1, 73.5 µM (inactive); in the test with SR it was 5.82 µM (inactive); in the test with MDA-MB-231, > 69 µM (inactive); in the test on K562, 4.25 µM (inactive). Besides, the GI50 in the test with HCT-116 is 4.71 µM (inactive); in the test with MCF7 it was 5.65 µM (inactive); in the test with BT-549, > 93.3 µM (inactive); with KM12, 8.2 µM (inactive); in the test on Hs-578T it was 45.8 µM (inactive); in the test with SK-MEL-2 it was 16.8 µM (inactive). The GI50 in the test with SF-295 is 8.43 µM (inactive); in the test with SNB-19, 36.1 µM (inactive); in the test with DU-145 it was > 85.3 µM (inactive); in the test on CCRF-CEM it was 7.87 µM (inactive); with NCI/ADR-RES it was 12.4 µM (inactive); in the test on SNB-75 it was 27.5 µM (inactive). The GI50 is 39.4 µM (inactive) in the test on TK-10 and 8.85 µM (inactive) in the test on U-251.
Turning to `CCOC(=O)c1cc2cc(CSc3ccccc3)ccc2oc1=O`, the GI50 in the test with RXF 393 was 39.4 µM (inactive); with MDA-N, > 100 µM (inactive); in the test on CAKI-1, > 100 µM (inactive); in the test with SR it was > 100 µM (inactive); with MDA-MB-231, 52.6 µM (inactive); with K562 it was 82.2 µM (inactive). Moreover, the GI50 in the test on HCT-116 was > 100 µM (inactive); with MCF7, 90.2 µM (inactive); with BT-549, > 100 µM (inactive); with KM12 it was > 100 µM (inactive); in the test on Hs-578T, 52.1 µM (inactive); with SK-MEL-2, 92.5 µM (inactive). Moreover, the GI50 in the test with SF-295 is 43.4 µM (inactive); in the test with SNB-19, 46.8 µM (inactive); with DU-145, 89.1 µM (inactive); with CCRF-CEM, > 100 µM (inactive); with NCI/ADR-RES, > 100 µM (inactive); with SNB-75 it was 38.4 µM (inactive). Besides, the GI50 was 57.9 µM (inactive) with TK-10 and > 100 µM (inactive) with U-251.
As for `COc1ccc2/c(=C/c3ccc(N(C)C)cc3)c3cc(-c4ccccc4)[n+](C)n3c2c1`, the GI50 was 0.59 µM (active) in the test with RXF 393; 0.0889 µM (active) with MDA-N; 1.2 µM (inactive) with CAKI-1; 0.092 µM (active) in the test on SR; 0.31 µM (active) in the test with MDA-MB-231; 0.057 µM (active) with K562. In addition, the GI50 with HCT-116 is 0.17 µM (active); in the test on MCF7 it was 0.126 µM (active); with BT-549 it was 0.0957 µM (active); in the test on KM12, 0.192 µM (active); with Hs-578T, 0.142 µM (active); in the test on SK-MEL-2, 0.18 µM (active). Moreover, the GI50 in the test with SF-295 was 0.194 µM (active); in the test with SNB-19, 0.134 µM (active); in the test on DU-145 it was 0.179 µM (active); in the test on CCRF-CEM it was 0.395 µM (active); in the test with NCI/ADR-RES it was 9.66 µM (inactive); in the test with SNB-75 it was 0.285 µM (active). Besides, the GI50 with TK-10 is 0.239 µM (active); in the test on U-251, < 0.0318 µM (active).
